Experiments:
HIV-1 Tat (p16/p14) = test: Immunoblot of HIV-1 Tat (p16/p14) in HeLa rtTA-HIV-ΔMls cells; assay type: cell-based; conditions: ~IC80 of CS, relative to DMSO (+Dox)
Procedure: Figure 3 CSs reduce expression of essential HIV-1 structural and regulatory proteins. HeLa rtTA-HIV-ΔMls cells were treated with ~IC80s of CSs (per Methods), 100 nM of RIDK-21 or -27, or DMSO for 4 h prior to Dox induction for 20 h as indicated. Cell extracts were analyzed by immunoblot of (a) HIV-1 structural proteins: Env (gp160/gp120) and Gag (p41/p24), and (b–d) viral regulatory factors: Rev (p19, b) and Tat (p16/p14, c,d). (d) Graph quantitating Tat expression. Results from (a–d) are from n ≥ 3, mean, s.e.m. […] (a and d) Lanes were cropped and assembled from the same blot per box from Supplementary Figure S4a,b and c, respectively.
To monitor HIV-1 gene expression or replication, Gag release into cell culture supernatants were assayed by ELISA using a p24^CA antigen capture assay kit (AIDS & Cancer Virus Program, NCI-Frederick, Frederick, MD USA). […] For analysis of HIV-1 and SR protein expression (and phosphorylation states with calf intestinal alkaline phosphatase treatments), cells were lysed and analyzed by western blot as previously outlined. […] Activation of MAPKs was determined by western blot quantitation and calculation of phospho/total protein levels. […] Stain-Free™ gels were casted and proteins were detected as described in 10% TGX-Stain-Free FastCast Acrylamide Kit from Bio-Rad (#161-0183). […]

HIV-1 gene expression = HIV-1 gene expression in CD4+ T-cell line 24ST1NLESG, p24CA ELISA; assay type: cell-based, HIV-1 (pNL4-3); conditions: PMA induced, 24 h, p24CA ELISA of supernatants
Procedure: Drug/compounds were tested for effects on HIV-1 gene expression using inducible Tet-ON HIV-1 cell lines [HeLa rtTA-HIV-ΔMls or rtTA-HIV(Gag-GFP)] containing a HIV-1 (LAI) provirus activatable by Dox or tetracycline transactivator (tTA)[69]. The rtTA-HIV-ΔMls provirus was modified and used as previously reported[9]–[11],[70]. The rtTA-HIV(Gag-GFP) provirus was generated by deletion of the PR and RT coding regions within pol and insertion of GFP to the 3′ of gag, creating GFP fused to the C-terminal of Gag. After 4 h of drug/compound treatment, HIV-1 gene expression was activated with Dox (2 μg/mL) or tTA (described below). Equal concentrations of DMSO were present in each experiment. After ~20 h, cells and media were harvested to monitor the effects of drug/compound treatments as described below. HIV-1 gene expression was quantified via p24^CA ELISA or monitoring Gag-GFP fluorescence in cells as described below. In parallel, cell viability of treatments were assessed by XTT assay (Sigma-Aldrich, #TOX2). […]
treatment of 24ST1NLESG cells (n ≥ 4, mean, s.e.m.). […] Cell lysates were analyzed by western blot with antibodies specific for (c) HIV-1 structural protein, Gag, and (d) viral regulatory factor, Tat. […]

Structure (SMILES) | p16 Tat expression (HIV-1 Tat (p16/p14)) | HIV-1 gene expression in 24ST1NLESG cells (HIV-1 gene expression)
C[C@]12CC[C@H](O)C[C@H]1CC[C@@H]1[C@@H]2CC[C@]2(C)[C@@H](C3=CC(=O)OC3)CC[C@]12O [Digitoxigenin] | 57 % of control | –
C[C@H]1O[C@@H](O[C@H]2[C@@H](O)C[C@H](O[C@H]3[C@@H](O)C[C@H](O[C@H]4CC[C@@]5(C)[C@H](CC[C@@H]6[C@@H]5CC[C@]5(C)[C@@H](C7=CC(=O)OC7)CC[C@]65O)C4)O[C@@H]3C)O[C@@H]2C)C[C@H](O)[C@@H]1O [Digitoxin] | – | Dose-dependent inhibition

From article PMC5770468, “Cardiac glycoside/aglycones inhibit HIV-1 gene expression by a mechanism requiring MEK1/2-ERK1/2 signaling” (Scientific Reports, 2018)
